Source: publication PMC4955727 (Molecular bioSystems, 2016)
Like-named read-outs stand apart in the source and are kept apart here.

Columns and labels:
[1] = test system: P-gp; conditions: cited from earlier work
[2] = molecular target: T1, P-gp (Homo sapiens, UniProt P08183)
[3] = molecular target: T1, P-gp; experiment: Rhodamine 123 efflux assay in KB CH^R 8-5 cells; conditions: for Rh123 % inhibition: 10 μM compound, 0.5 μg/ml rhodamine 123, 45 min, 37 °C; for inhibition at 45 min, 10 µM: human, KB CH^R 8-5 cells, probe rhodamine 123 (0.5 μg/ml)
[4] = molecular target: T1, P-gp; experiment: Calcein-AM efflux assay in KB CH^R 8-5 cells; conditions: for Calcein-AM Efflux % inhibition: 10 μM compound, 0.5 μM calcein-AM, 10 min, 37 °C; for P-gp efflux inhibitory activity (in words): calcein-AM and rhodamine 123 assays, 10 μM (Table 4); for inhibition at 10 min, 10 μM / inhibition at 10 µM: human, KB CH^R 8-5 cells; for inhibition at 10 µM: probe calcein-AM (0.5 μg/ml) and rhodamine 123 (0.5 μg/ml)
[5] = molecular target: T1, P-gp; experiment: in vitro
[6] = test system: KB 3-1 cells; experiment: MTT cytotoxicity of paclitaxel with or without reversal agent, parental cells; type: cell-based
[7] = test system: KB CH^R 8-5 cells; type: cell-based
[8] = test system: parental and P-gp overexpressing cell lines; experiment: Cytotoxicity assay of quercetin and rutin alone; type: cell-based; conditions: concentrations up to 10 μM, flavonoid alone
[9] = read-out: Actual IC50 (Literature) (A), ref Literature (source not given)

T1 sequence (P08183 whole entry): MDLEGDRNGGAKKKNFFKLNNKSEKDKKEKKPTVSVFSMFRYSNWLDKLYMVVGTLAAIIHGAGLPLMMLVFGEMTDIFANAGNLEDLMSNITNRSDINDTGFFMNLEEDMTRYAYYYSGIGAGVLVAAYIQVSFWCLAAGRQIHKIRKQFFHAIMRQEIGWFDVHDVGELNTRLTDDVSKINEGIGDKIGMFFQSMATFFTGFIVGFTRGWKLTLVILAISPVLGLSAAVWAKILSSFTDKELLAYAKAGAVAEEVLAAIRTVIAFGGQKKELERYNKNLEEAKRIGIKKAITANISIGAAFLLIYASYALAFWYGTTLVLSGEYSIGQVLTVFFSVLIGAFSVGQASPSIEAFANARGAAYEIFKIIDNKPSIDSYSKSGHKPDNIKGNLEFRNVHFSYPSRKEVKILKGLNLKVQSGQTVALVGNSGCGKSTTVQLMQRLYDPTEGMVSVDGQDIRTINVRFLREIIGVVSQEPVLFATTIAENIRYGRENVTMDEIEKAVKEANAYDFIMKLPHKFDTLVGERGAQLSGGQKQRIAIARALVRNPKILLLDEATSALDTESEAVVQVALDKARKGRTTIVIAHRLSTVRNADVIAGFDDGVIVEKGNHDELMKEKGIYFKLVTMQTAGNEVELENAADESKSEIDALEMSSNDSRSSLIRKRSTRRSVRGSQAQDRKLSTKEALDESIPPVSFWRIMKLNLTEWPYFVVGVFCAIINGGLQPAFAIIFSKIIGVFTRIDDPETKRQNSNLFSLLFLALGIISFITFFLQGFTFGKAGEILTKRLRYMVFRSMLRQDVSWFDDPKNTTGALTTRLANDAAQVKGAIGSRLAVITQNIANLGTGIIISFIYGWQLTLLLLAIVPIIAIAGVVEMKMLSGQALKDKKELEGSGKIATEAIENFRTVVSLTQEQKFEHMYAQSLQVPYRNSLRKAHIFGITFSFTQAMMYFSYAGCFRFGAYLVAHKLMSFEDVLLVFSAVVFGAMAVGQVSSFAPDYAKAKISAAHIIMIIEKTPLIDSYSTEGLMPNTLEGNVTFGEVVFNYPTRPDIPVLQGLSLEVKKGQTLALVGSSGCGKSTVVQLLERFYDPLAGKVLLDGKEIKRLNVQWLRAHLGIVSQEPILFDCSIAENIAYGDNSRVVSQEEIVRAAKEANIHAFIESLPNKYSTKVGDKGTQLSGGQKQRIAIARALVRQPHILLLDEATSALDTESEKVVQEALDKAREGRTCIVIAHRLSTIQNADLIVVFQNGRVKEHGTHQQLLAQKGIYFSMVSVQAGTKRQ

Compound	IC50 [1, 9]	inhibition at 45 min, 10 µM [3]	P-gp efflux inhibitory activity (in words) [4]	inhibition at 10 min, 10 μM [4]	also measured
Oc1cc(O)c2c(c1)O[C@H](c1ccc(O)c(O)c1)[C@@H](O)C2 [(+)-Catechin]	50 µM	–	–	–	–
O=C(O[C@@H]1Cc2c(O)cc(O)cc2O[C@@H]1c1ccc(O)c(O)c1)c1cc(O)c(O)c(O)c1 [(-)-Epicatechin 3-gallate]	15.1 µM	–	–	–	IC50 [2]: 33 µM; P-gp efflux inhibitory activity (in words) [2]: moderate inhibitory activity; Rh123 % inhibition [3]: 80.56%; Calcein-AM Efflux % inhibition [4]: 83.25%
Oc1cc(O)c2c(c1)O[C@H](c1ccc(O)c(O)c1)[C@H](O)C2 [(-)-Epicatechin]	0.4 µM	–	–	–	–
O=C(O[C@@H]1Cc2c(O)cc(O)cc2O[C@@H]1c1cc(O)c(O)c(O)c1)c1cc(O)c(O)c(O)c1 [(-)-Epigallocatechin gallate]	43.8 µM	–	–	–	–
O=c1cc(-c2ccc(O)cc2)oc2cc(O)cc(O)c12 [Apigenin]	10 µM	35%	low inhibitory activity	39.5%	–
O=c1cc(-c2ccccc2)oc2cc(O)c(O)c(O)c12 [Baicalein]	1.5 µM	7.54%	low inhibitory activity	11%	inhibition at 10 µM [4]: ≤ 15%
O=c1cc(-c2ccccc2)oc2cc(O)cc(O)c12 [Chrysin]	1.5 µM	–	–	–	–
COc1cc(/C=C/C(=O)CC(=O)/C=C/c2ccc(O)c(OC)c2)ccc1O [Curcumin]	1 µM	–	–	–	–
COc1cccc2c1C(=O)c1c(O)c3c(c(O)c1C2=O)C[C@@](O)(C(C)=O)C[C@@H]3O[C@H]1C[C@H](N)[C@H](O)[C@H](C)O1 [Daunorubicin, reference compound]	1 µM	–	–	–	–
COc1cccc2c1C(=O)c1c(O)c3c(c(O)c1C2=O)C[C@@](O)(C(=O)CO)C[C@@H]3O[C@H]1C[C@H](N)[C@H](O)[C@H](C)O1 [Doxorubicin, reference compound]	0.04 µM	–	–	–	–
Oc1cc(O)c2c(c1)O[C@H](c1cc(O)c(O)c(O)c1)[C@H](O)C2 [Epigallocatechin]	–	–	–	–	IC50 [1]: 118 µM
O=C1C[C@@H](c2ccc(O)c(O)c2)Oc2cc(O)cc(O)c21 [Eriodictyol]	50 µM	–	–	–	–
O=c1c(O)c(-c2ccc(O)c(O)c2)oc2cc(O)ccc12 [Fistein, Fisetin]	16 µM	13.1%	low inhibitory activity	16.8%	inhibition at 10 µM [4]: ≤ 15%
Oc1cc(O)c2c(c1)O[C@H](c1cc(O)c(O)c(O)c1)[C@@H](O)C2 [Gallocatechin]	–	–	–	–	IC50 [1]: 136 µM
O=c1c(-c2ccc(O)cc2)coc2cc(O)cc(O)c12 [Genistein]	–	–	–	–	IC50 [1]: 6.9 µM
COc1cc2c(=O)c(-c3ccc(O)cc3)coc2cc1O [Glycitein]	5.99 µM	–	–	–	–
COc1ccc([C@@H]2CC(=O)c3c(O)cc(O[C@@H]4O[C@H](CO[C@@H]5O[C@@H](C)[C@H](O)[C@@H](O)[C@H]5O)[C@@H](O)[C@H](O)[C@H]4O)cc3O2)cc1O [Hesperidin]	6.2 µM	–	low inhibitory activity	–	Rh123 % inhibition [3]: 21.09%; Calcein-AM Efflux % inhibition [4]: 29.58%
COc1ccc([C@@H]2CC(=O)c3c(O)cc(O)cc3O2)cc1O [Hesperitin]	20 µM	–	–	–	–
O=c1c(O[C@@H]2O[C@H](CO)[C@@H](O)[C@H](O)[C@H]2O)c(-c2ccc(O)c(O)c2)oc2cc(O)cc(O)c12 [Isoquercitrin]	24.3 µM	18.4%	low inhibitory activity	19.8%	–
COc1cc(-c2oc3cc(O)cc(O)c3c(=O)c2O)ccc1O [Isorhamnetin]	–	–	–	–	P-gp efflux inhibitory activity (in words) [2]: low inhibitory activity; Calcein-AM Efflux % inhibition ([2]; human): 23.05%; inhibition at 10 µM [5]: 19.5%; IC50 [1]: 0.34 µM

Compound	IC50 [1, 9]	inhibition at 45 min, 10 µM [3]	P-gp efflux inhibitory activity (in words) [4]	inhibition at 10 min, 10 μM [4]	also measured
O=c1c(O)c(-c2ccc(O)cc2)oc2cc(O)cc(O)c12 [Kaempferol]	4.8 µM	25.1%	low inhibitory activity	33.8%	–
O=c1cc(-c2ccc(O)c(O)c2)oc2cc(O)cc(O)c12 [Luteolin]	–	11.5%	low inhibitory activity	12.6%	IC50 [1]: 0.8 µM; inhibition at 10 µM [4]: ≤ 15%
O=c1c(O)c(-c2ccc(O)cc2O)oc2cc(O)cc(O)c12 [Morin]	8.1 µM	40.5%	low inhibitory activity	42.8%	–
O=c1c(O)c(-c2cc(O)c(O)c(O)c2)oc2cc(O)cc(O)c12 [Myricetin]	5.9 µM	55.8%	moderate inhibitory activity	57.2%	–
O=C1C[C@@H](c2ccc(O)cc2)Oc2cc(O)cc(O)c21 [Naringenin]	16 µM	–	–	–	–
C[C@@H]1O[C@@H](O[C@H]2[C@H](Oc3cc(O)c4c(c3)O[C@H](c3ccc(O)cc3)CC4=O)O[C@H](CO)[C@@H](O)[C@@H]2O)[C@H](O)[C@H](O)[C@H]1O [Naringin]	–	75.6%	moderate inhibitory activity	70.2%	–
COc1cc2oc(-c3ccccc3)cc(=O)c2c(O)c1O [Negletein]	–	–	–	–	IC50 [1]: 6.4 µM
CC(=O)O[C@H]1C(=O)[C@@]2(C)[C@H]([C@H](OC(=O)c3ccccc3)[C@]3(O)C[C@H](OC(=O)[C@H](O)[C@@H](NC(=O)c4ccccc4)c4ccccc4)C(C)=C1C3(C)C)[C@]1(OC(C)=O)CO[C@@H]1C[C@@H]2O [Paclitaxel]	1.2 µM	–	–	–	IC50 ([6]; Homo sapiens, KB 3-1, read-out: IC50 ± SEM of paclitaxel): 0.04 ± 0.01 µM; FR (fold-resistance) ([6]; KB 3-1, paclitaxel alone): [1.0]; FR (fold-resistance) ([7]; KB Ch^R 8-5, paclitaxel alone, vs KB 3-1): [50.0]; IC50 ([7]; read-out: IC50 ± SEM of paclitaxel): 2 ± 0.2 µM
Oc1ccc(-c2[o+]c3cc(O)cc(O)c3cc2O)cc1 [Pelargonidin]	14 µM	47.2%	moderate inhibitory activity	46%	–
O=C1C[C@@H](c2ccccc2)Oc2cc(O)cc(O)c21 [Pinocembrin]	5.8 µM	–	–	–	–
COc1cc(O)c2c(c1)O[C@H](c1ccccc1)CC2=O [Pinostrobin]	5.4 µM	–	–	–	–
COc1cc(O)c2c(=O)c(-c3ccc(O)cc3)coc2c1 [Prunetin]	6.4 µM	–	–	–	–
O=c1c(O)c(-c2ccc(O)c(O)c2)oc2cc(O)cc(O)c12 [Quercetin, 2-(3,4-dihydroxyphenyl)-3,5,7-trihydroxy-4H-chromen-4-one]	–	–	–	–	cell survival [8]: > 85%
COc1cc(O)c2c(=O)c(OC)c(-c3ccc(OC)c(OC)c3)oc2c1 [Retusin]	12 µM	3.06%	low inhibitory activity	6.43%	inhibition at 10 µM [4]: ≤ 15%
C[C@@H]1O[C@@H](OC[C@H]2O[C@@H](Oc3c(-c4ccc(O)c(O)c4)oc4cc(O)cc(O)c4c3=O)[C@H](O)[C@@H](O)[C@@H]2O)[C@H](O)[C@H](O)[C@H]1O [Rutin, 2-(3,4-dihydroxyphenyl)-5,7-dihydroxy-3-[α-L-rhamnopyranosyl-(1→6)-β-D-glucopyranosyloxy]-4H-chromen-4-one]	–	–	–	–	cell survival [8]: > 85%
Oc1ccc2c(c1)OCO2 [Sesamol]	0.3 µM	–	–	–	–
COc1cc(C2Oc3cc([C@H]4Oc5cc(O)cc(O)c5C(=O)[C@@H]4O)ccc3OC2CO)ccc1O (some centres unmarked) [Silibinin]	3.4 µM	–	moderate inhibitory activity	–	inhibition at 10 µM [5]: 71.4%; Calcein-AM Efflux % inhibition [4]: 63.75%
COc1ccc(-c2oc3cc(O)cc(O)c3c(=O)c2O)cc1O [Tamarixetin]	10 µM	77.2%	moderate inhibitory activity	78.7%	IC50 [4]: 46 µM
COc1ccc(-c2cc(=O)c3c(OC)c(OC)c(OC)c(OC)c3o2)cc1 [Tangeritin]	3 µM	–	low inhibitory activity	–	Rh123 % inhibition [3]: 12.76%; Calcein-AM Efflux % inhibition [4]: 14.23%; inhibition in calcein-AM and rhodamine-123 assays ([4]; 10 μM concentration, both calcein-AM and rhodamine-123 assay data): ≤ 15%
O=c1c(O)cc([C@H]2Oc3cc(O)cc(O)c3C[C@H]2O)cc2c([C@H]3Oc4cc(O)cc(O)c4C[C@H]3O)cc(O)c(O)c12 [Theaflavine]	60 µM	83.2%	very effective P-gp efflux inhibitory activity	88.8%	IC50 [4]: 20 µM
